# Values quoted from earlier work as cited in patent publication US20080287471A1, “4'-Substituted Carbovir And Abacavir-Derivatives As Well As Related Compounds With Hiv And Hcv Antiviral Activity” (priority 2003, published 2008).
# Tested on: HIV
# Details: after a short course of abacavir monotherapy
structure (smiles),measurement,value
"Nc1nc(NC2CC2)c2ncn([C@H]3C=C[C@@H](CO)C3)c2n1 [abacavir, Abacavir]",average reduction in viral load,more than 1.4 log 10 RNA copies/ml
